{
  "source": "patent US20130337463A1",
  "about": "“Cell-Based Models of Neurodegenerative Disease” (The Trustees of the University of Pennsylvania, priority 2010, published 2013)",
  "key": {"[1]": {"system": "primary hippocampal neurons derived from WT C57BL6 mice", "assay": "p-α-syn aggregate formation in primary hippocampal neurons after pff addition", "assay_type": "cell-based, mouse", "settings": "for p-α-syn aggregate formation: pffs added to DIV5 neurons, 2 weeks", "experimental": "Primary neuronal cultures were prepared from E16-E18 C57BL/6 mouse brains (Charles River, Wilmington, Mass.) and α-syn −/− mice (Abeliovich et al., 2000, Neuron 25:239-252). All procedures were performed according to the NIH Guide for the Care and Use of Experimental Animals and were approved by the University of Pennsylvania Institutional Animal Care and Use Committee. Hippocampi were dissected, rinsed with Hank's Balanced Salt Solution (HBSS) and digested in HBSS containing papain (20 U/mL; Worthington Biochemical Corporation; Lakewood, N.J.) containing DNase (20 μg/mL; Worthington Biochemical Corporation; Lakewood, N.J.). Following rinses in plating media (10% fetal bovine serum, 1% penicillin/streptomycin, Glutamax, B27, Neurobasal media; Invitrogen, Carlsbad, Calif.) and HBSS, dissociated hippocampal neurons were plated in plating media onto poly-D-lysine (0.1 mg/mL, diluted in borate buffer, 0.1M, pH8.4) coated coverslips (Carolina Biological Supply, Burlington, N.C.) in 24 well trays at 20,000-40,000 cells/cm^2 or poly-D-lysine coated 60 mm dishes at 70-100,000 cells/cm2. The media was then changed to neuronal media (1% penicillin/streptomycin, Glutamax, B27, Neurobasal media). Most experiments were performed at 19 days in vitro (DIV).\nRecombinant full-length and truncated α-syn with and without a C-terminal myc-tag, were purified as previously described (Giasson et al., 2001, J. Biol. Chem. 276:2380-2386). α-syn pffs were generated by incubating purified α-syn (5 mg/mL in PBS) at 37° C. with constant agitation for 5 days, followed by aliquoting and storage at […]. The presence of amyloid was confirmed using Thioflavin T fluorometry. Fibrils of α-syn synthetic NAC peptide (amino acids 61-95) (Biotechnology Resource Center, Yale University) were generated as described (Giasson et al., 2001, J. Biol. Chem. 276:2380-2386). Pffs were diluted in PBS at 0.1 mg/mL, sonicated several times, and diluted in neuronal media. For a 24-well tray, 1 μg/mL of pffs were added, and 5 μg/mL of α-syn pffs were added to a […]. For WGA experiments, α-syn pffs were incubated with 1 μg/mL or 5 μg/mL WGA or preincubated for 1 hr (h) with 0.1 M GlcNAC followed by incubation with media containing α-syn pffs, GlcNAC, and WGA.\nNeurons were fixed with 4% paraformaldehyde in PBS containing 4% sucrose followed by permeabilization with 0.1% Triton X-100. To determine if the pathologic α-syn aggregates were detergent-insoluble, neurons were fixed with 4% paraformaldehyde, 4% sucrose and 1% Tx-100 (Luk et al., 2009, Proc. Natl. Acad. Sci. USA 106:20051-20056). Following fixation, neurons were blocked with 3% bovine serum albumin (BSA) in PBS, and incubated in primary antibodies (Table 6) followed by Alex fluor 594 or 488-conjugated secondary antibodies (anti-mouse, anti-rabbit, anti-IgG1 and anti-IgG2a; Invitrogen; Carlsbad, Calif.) diluted in blocking buffer. To assess cell viability, cells were incubated with ethidium homodimer (2 μM, Sigma Aldrich, St. Louis, Mo.) and Hoechst 33342 (1:1000, Invitrogen, Carlsbad, Calif.) and the percent overlap between both dyes was determined using Metamorph software (Molecular Devices, Sunnyvale, Calif.)."}, "[2]": {"system": "T40/P301L-transfected cells", "assay": "Fibril-alone transduction without BioPORTER reagent (spontaneous PFF uptake)", "assay_type": "cell-based, human", "experimental": "For fibril-alone transduction without BioPORTER reagent, cells were placed on starvation medium right before the addition of fibrils. Fibrils were processed as described above and the same amount was used as in reagent-mediated transduction. Cells were trypsinized and replated either 4 hr or 30 hr after the initial addition of fibrils. For experiments using WGA, different doses of WGA were added to starvation medium together with PFFs. To inhibit endocytosis of WGA, 0.1 M GlcNAc was incubated with medium containing PFFs and 10 µg/ml WGA for 1 hr at 37° C. before being added to cells which were pre-incubated in 0.1M GlcNAc-containing medium for 1 hr. Cells were placed on WGA-free starvation medium 5-6 hr after fibril addition and fixed after overnight incubation to minimize possible toxicity resulted from WGA treatment.\nImmunocytochemistry was performed 48 hr after the initial addition of fibrils unless indicated otherwise. Cells were fixed in 4% paraformaldehyde (PFA) for 10 min and permeabilized with 0.1% Triton-X100 for 15 min, or fixed with 4% PFA containing 1% Triton-X100 for 15 min to remove soluble proteins. For visualization of microtubules, cells were fixed with 0.3% glutaraldehyde in PEM buffer (80 mM PIPES, pH6.8, 5 mM EGTA, 1 mM MgCl2) for 10 min, extracted with 1% Triton-X100 for 15 min before being quenched with 10 mg/ml sodium borohydride for 7 min followed by 0.1 M glycine for 20 min. […]\nFor quantifying the percentage of cells developing tau aggregates with different combinations of endogenous tau and PFFs, 10-20 random-field images were taken at 40× magnification for each combination and at least two independent experiments were performed. For quantification of MT-bundling and PFF-induced tau aggregation in the absence of bioPORTER reagent under various conditions (i.e. different temperatures, with or without WGA/GlcNAc), 10 random-field images were taken at 20× magnification for each condition in each experiment and 3-4 independent experiments were performed. […]"}, "[3]": {"system": "AMPAR", "settings": "published (Dev et al., 1996); cited from earlier work"}, "[4]": {"system": "QBI-WT-Syn cells (QBI-293 cells stably expressing WT α-Syn)", "assay": "α-Syn inclusion formation after Bioporter transduction of QBI-WT-Syn cells", "assay_type": "cell-based, human", "settings": "immunostaining 48 h after transduction", "experimental": "QBI cells were plated in 35-mm tissue culture plates and allowed to reach 80-90% confluence for transduction experiments. Cells were transferred to serum-free media 1 h before transduction. For each plate, 10 μL of cationic-liposomal protein transduction reagent (Bioporter; Sigma) was added to a 1.5-mL Microfuge tube and evaporated as per the manufacturer's guidelines. The resulting reagent dry-film was then directly resuspended with 80 μL of PBS containing α-Syn fibrils (100 μg/mL) fragmented by brief sonication with a hand-held probe. Protein:reagent complexes were allowed to form at room temperature for 10 min, after which the mixture was further diluted in OptiMEM (Invitrogen) and added to cells. Cells were then further incubated for 4 h, washed twice with Versene and 0.5% trypsin/EDTA to remove extracellular α-Syn fibrils, and transferred onto 6-well tissue culture plates or poly(d-lysine)-coated glass coverslips. […]\nCells on coverslips were washed with PBS and fixed with 4% paraformaldehyde. […] Epifluorescence images were obtained by using a Nikon Eclipse 3000 inverted microscope equipped with a CoolSNAP HQ camera (Roper Scientific) and analyzed by using Metamorph 6.0 (Molecular Devices). […] Confocal laser scanning microscopic images were obtained by using a Zeiss LSM510 microscope and analyzed by using Volocity software (Improvision)."}},
  "data": [
    {"molecule": "CC(=O)N[C@H]1C(O)O[C@H](CO)[C@@H](O)[C@@H]1O", "note": "(stereo partly shown) [GlcNAc, N-acetyl glucosamine]", "values": [
      {"measurement": "effect on WGA-enhanced aggregate formation", "setting": "[1]; 0.1 M GlcNAc", "result": "reduced the effects of WGA on α-syn pff-induced aggregate formation"},
      {"measurement": "effect on WGA-enhanced PFF uptake and tau aggregation", "setting": "[2]; 0.1 M GlcNAc added to the medium", "result": "significantly attenuated"}
    ]},
    {"molecule": "NS(=O)(=O)c1cccc2c1c([N+](=O)[O-])cc1nc(O)c(O)nc12", "note": "[NBQX]", "values": [
      {"measurement": "IC50", "setting": "[3]", "result": 47, "unit": "nM"}
    ]},
    {"molecule": "wheat germ agglutinin [WGA]", "values": [
      {"measurement": "effect on extent of p-α-syn pathology", "setting": "[1]; co-incubation with α-syn-hWT pffs, 1 or 5 μg/mL WGA, 4 days", "result": "dose-dependently increased the extent of p-α-syn pathology"},
      {"measurement": "effect on prevalence of tau aggregate-bearing cells", "setting": "[2]; co-incubated with myc-K18/P301L PFFs, 0, 5, 10, 15 µg/ml WGA", "result": "increased the prevalence of tau aggregate-bearing cells"},
      {"measurement": "accumulation of insoluble tau in the absence of PFFs", "setting": "[2]; up to 15 µg/ml of WGA", "result": "nor does it induce accumulation of insoluble tau in the absence of PFFs"}
    ]},
    {"molecule": "α-syn-1-89: human α-syn pffs composed of residues 1-89", "values": [
      {"measurement": "p-α-syn aggregate formation", "setting": "[1]", "result": "robust accumulation of endogenous p-α-syn aggregates"}
    ]},
    {"molecule": "α-syn-58-140: human α-syn pffs composed of residues 58-140", "values": [
      {"measurement": "p-α-syn aggregate formation", "setting": "[1]", "result": "seeded formation of endogenous mouse α-syn aggregates"}
    ]},
    {"molecule": "α-syn-NAC: fibrils of α-syn synthetic NAC peptide (amino acids 61-95)", "values": [
      {"measurement": "p-α-syn aggregate formation", "setting": "[1]", "result": "resulted in endogenous mouse α-syn fibrillar LB-like aggregates"}
    ]},
    {"molecule": "β-galactosidase: unrelated soluble protein", "values": [
      {"measurement": "inclusion formation", "setting": "[4]", "result": "did not result in inclusion formation"}
    ]}
  ]
}
